Test results taken from paper PMC6480711, “The Molecular and Structural Basis of O-methylation Reaction in Coumarin Biosynthesis in Peucedanum praeruptorum Dunn” (International Journal of Molecular Sciences, 2019).

Experiments:
COMT-S = molecular target: T1, COMT-S (Kitagawia praeruptora, UniProt A0A4P8DY91); assay: isothermal titration calorimetry; type: binding; settings: 25 mM Tris-HCl pH 8.0, 150 mM NaCl, 25 °C; cofactor analogue (product of SAM)
T1 construct: full-length CDS in pET28a, 6xHis tag, E. coli BL21 (DE3), Superdex 200
T1 sequence (A0A4P8DY91 1-364): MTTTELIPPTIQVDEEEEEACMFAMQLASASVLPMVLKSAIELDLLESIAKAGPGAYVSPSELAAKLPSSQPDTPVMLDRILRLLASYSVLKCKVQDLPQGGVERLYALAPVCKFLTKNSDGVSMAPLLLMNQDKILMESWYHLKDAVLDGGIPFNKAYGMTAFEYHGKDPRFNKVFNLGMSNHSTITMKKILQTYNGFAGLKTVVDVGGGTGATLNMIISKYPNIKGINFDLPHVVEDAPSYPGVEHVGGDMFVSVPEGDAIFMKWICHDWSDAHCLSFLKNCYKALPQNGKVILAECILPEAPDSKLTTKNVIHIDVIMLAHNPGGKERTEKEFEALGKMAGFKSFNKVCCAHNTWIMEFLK

PpBMT = molecular target: T2, PpBMT (Kitagawia praeruptora, UniProt A0A166U5H3); assay: HPLC product analysis; type: biochemical; settings: co-substrate SAM; product bergapten
T2 construct: gene BMT; recombinant, construct as in the authors' previous report
T2 sequence (A0A166U5H3 whole entry): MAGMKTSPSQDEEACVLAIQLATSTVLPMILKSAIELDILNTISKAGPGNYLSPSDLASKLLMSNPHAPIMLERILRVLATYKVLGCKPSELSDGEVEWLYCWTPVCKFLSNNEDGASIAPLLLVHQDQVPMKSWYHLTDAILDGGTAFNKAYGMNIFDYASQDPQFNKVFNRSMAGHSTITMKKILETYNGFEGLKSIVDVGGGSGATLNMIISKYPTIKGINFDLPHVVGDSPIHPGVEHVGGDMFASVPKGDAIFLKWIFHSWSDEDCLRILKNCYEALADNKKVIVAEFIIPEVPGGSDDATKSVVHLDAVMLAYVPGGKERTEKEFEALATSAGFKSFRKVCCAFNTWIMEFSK

SMILES | equilibrium dissociation constant (COMT-S) | HPLC product analysis (PpBMT)
Nc1ncnc2c1ncn2[C@@H]1O[C@H](CSCC[C@H](N)C(=O)O)[C@@H](O)[C@H]1O [SAH] | The equilibrium dissociation constants of PpBMT/COMT–SAH interactions were determined by an MicroCal Auto-ITC200 calorimeter | 
O=c1ccc2c(O)c3ccoc3cc2o1 [bergaptol] |  | COMT-S could accept esculetin, bergaptol, and xanthotoxl as substrates, while BMT could only catalyze bergaptol
